Patent US20240083886A1, “HETEROCYCLIC GLP-1 AGONISTS” (Gasherbrum Bio, Inc., priority 2020, published 2024)
pEC50: −log10 of the molar value. Where two headings read alike, the source gives them in different places.

Molecular target: GLP-1 Receptor (Homo sapiens, UniProt P43220)
Experiment: GLP-1R agonist cAMP stimulation assay
Format: cell-based
Description: Activation of GLP-1 receptor is known to stimulate cyclic AMP (cAMP) production in cells which indicates primary coupling to the Gαs subunit of the G protein heterotrimeric complex.
To optimize functional activity directed toward Gαs coupling, a HEK293/CRE-Luc cell line developed by HDB stably expressing the GLP-1 Receptor was used. 200× concentration of compound working solutions were prepared (Agilent Technologies Bravo) with ½ log serial dilution in 384-well Echo LDV plate (Labcyte, Cat #LP-0200). 50 nL/well 200× concentration of compound working solutions were moved to 384-well white low volume plate (Greiner, Cat #784075) using Labcyte ECHO550. 1×10^5 cells/mL HEK293/GLP1R/CRE-LUC(HD Biosciences) cell suspensions prepared with assay buffer[DPBS containing 0.5 mM IBMX(Sigma, Cat #15879) and 0.1% BSA (GENVIEW, Cat #FA016-100 g)], 10 uL cell suspensions were added to each well of previous generated assay plate which already contains 50 nl compound at 200×concentration using ThermoFisher Multidrop Combi (1000 cells/well). Seal the plate and incubate at 37° C. with 5% CO2 for 30 min.
After incubation the cAMP assay signal was generated using cAMP dynamic 2 Kit (Cisbio). 5 μL cAMP-d2 working solution was added to each well, followed with 5 μL Anti-cAMP antibody-cryptate working solution added to each well using ThermoFisher Multidrop Combi. Incubate at room temperature for 1 hour protected from light. Read the fluorescence at 665 and 615 nm with Reader PerkinElmer EnVision.
% Activity=100%×(mean RLU of test sample−mean RLU of vehicle control)/(mean RLU of MAX control−mean RLU of vehicle control))

[1] = HEK293/GLP1R/CRE-LUC cells, cAMP dynamic 2 Kit (Cisbio), 30 min incubation at 37° C., read-out: EC50

Sequence of GLP-1 Receptor (P43220 24-463, species assumed): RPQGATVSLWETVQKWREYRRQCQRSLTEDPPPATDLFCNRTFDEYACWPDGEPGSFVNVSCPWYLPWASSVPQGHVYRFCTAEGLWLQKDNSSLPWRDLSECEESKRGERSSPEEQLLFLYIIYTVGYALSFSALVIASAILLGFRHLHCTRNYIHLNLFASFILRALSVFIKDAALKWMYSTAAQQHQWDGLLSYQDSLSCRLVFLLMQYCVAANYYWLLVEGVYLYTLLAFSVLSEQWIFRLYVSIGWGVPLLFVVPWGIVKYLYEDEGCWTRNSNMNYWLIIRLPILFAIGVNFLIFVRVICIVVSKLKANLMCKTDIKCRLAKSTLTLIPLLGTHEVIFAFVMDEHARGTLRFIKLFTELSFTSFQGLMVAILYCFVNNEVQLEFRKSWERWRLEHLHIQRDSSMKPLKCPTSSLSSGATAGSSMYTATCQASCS

SMILES | pEC50 [1] | pEC50
Fc1cnc(Cc2ccc(Cl)cc2)nc1OC1CCN(Cc2nc3cc(-c4nnc(C(F)(F)F)[nH]4)cnc3n2C[C@@H]2CCO2)CC1 [Compound 121a, 2-[(4-chlorophenyl)methyl]-5-fluoro-4-({1-[(3-{[(2S)-oxetan-2-yl]methyl}-6-[5-(trifluoromethyl)-4H-1,2,4-triazol-3-yl]-3H-imidazo[4,5-b]pyridin-2-yl)methyl]piperidin-4-yl}oxy)pyrimidine] | 9.30 | 
O=c1[nH]c(-c2ccc3c(c2)nc(C[C@H]2CC[C@H](Oc4nc(Cc5ccc(Cl)cc5)ncc4F)CC2)n3C[C@@H]2CCO2)no1 [Compound 172a, 3-(1-{[(2S)-oxetan-2-yl]methyl}-2-{[(1r,4r)-4-({2-[(4-chlorophenyl)methyl]-5-fluoropyrimidin-4-yl}oxy)cyclohexyl]methyl}-1H-1,3-benzodiazol-5-yl)-4,5-dihydro-1,2,4-oxadiazol-5-one] | 8.74 | 
Fc1cc(Cl)ccc1Cc1cccc(OC2CCN(Cc3nc4cc(-c5nnc(C(F)(F)F)[nH]5)ccc4n3C[C@@H]3CCO3)CC2)n1 [Compound 137a, 2-{[4-({6-[(4-chloro-2-fluorophenyl)methyl]pyridin-2-yl}oxy)piperidin-1-yl]methyl}-1-{[(2S)-oxetan-2-yl]methyl}-5-[5-(trifluoromethyl)-4H-1,2,4-triazol-3-yl]-1H-1,3-benzodiazole] | 9.85 | 
O=c1[nH]c(-c2cnc3c(c2)nc(CN2CCC(Oc4ccnc(Cc5ccc(Cl)cc5)n4)CC2)n3C[C@@H]2CCO2)no1 [Compound 144a, 3-(2-{[4-({2-[(4-chlorophenyl)methyl]pyrimidin-4-yl}oxy)piperidin-1-yl]methyl}-3-{[(2S)-oxetan-2-yl]methyl}-3H-imidazo[4,5-b]pyridin-6-yl)-4,5-dihydro-1,2,4-oxadiazol-5-one] | 8.74 | 
Cc1cncc(C(=O)Nc2ccc3c(c2)nc(CN2CCC(Oc4ccnc(Cc5ccc(Cl)cc5)n4)CC2)n3C[C@@H]2CCO2)c1 [Compound 101a, N-(2-{[4-({2-[(4-chlorophenyl)methyl]pyrimidin-4-yl}oxy)piperidin-1-yl]methyl}-1-{[(2S)-oxetan-2-yl]methyl}-1H-1,3-benzodiazol-5-yl)-5-methylpyridine-3-carboxamide] | 10.09 | 
Fc1cnc(Cc2ccc(Cl)cc2)nc1OC1CCN(Cc2nc3cc(-c4nnc(C(F)(F)F)[nH]4)ccc3n2C[C@H]2CCOC2)CC1 [Compound 147a, 2-{[4-({2-[(4-chlorophenyl)methyl]-5-fluoropyrimidin-4-yl}oxy)piperidin-1-yl]methyl}-1-{[(3R)-oxolan-3-yl]methyl}-5-[5-(trifluoromethyl)-4H-1,2,4-triazol-3-yl]-1H-1,3-benzodiazole] | 7.96 | 
CC(C)c1ccc(C(=O)Nc2ccc3c(c2)nc(CN2CCC(Oc4ccnc(Cc5ccc(Cl)cc5F)n4)CC2)n3C[C@@H]2CCO2)cn1 [Compound 116a, N-(2-{[4-({2-[(4-chloro-2-fluorophenyl)methyl]pyrimidin-4-yl}oxy)piperidin-1-yl]methyl}-1-{[(2S)-oxetan-2-yl]methyl}-1H-1,3-benzodiazol-5-yl)-6-(propan-2-yl)pyridine-3-carboxamide] | 7.96 | 
O=c1[nH]c(-c2cc3nc(CN4CCC(Oc5ccnc(Cc6ccc(Cl)cc6F)n5)CC4)n(C[C@@H]4CCO4)c3cn2)no1 [Compound 167a, 3-(2-{[4-({2-[(4-chloro-2-fluorophenyl)methyl]pyrimidin-4-yl}oxy)piperidin-1-yl]methyl}-3-{[(2S)-oxetan-2-yl]methyl}-3H-imidazo[4,5-c]pyridin-6-yl)-4,5-dihydro-1,2,4-oxadiazol-5-one] | 9.64 | 
O=C(Nc1ccc2c(c1)nc(CN1CCC(Oc3ccnc(Cc4ccc(Cl)cc4)n3)CC1)n2C[C@@H]1CCO1)c1cccnc1 [Compound 102a, N-(2-{[4-({2-[(4-chlorophenyl)methyl]pyrimidin-4-yl}oxy)piperidin-1-yl]methyl}-1-{[(2S)-oxetan-2-yl]methyl}-1H-1,3-benzodiazol-5-yl)pyridine-3-carboxamide] | 9.51 | 
Fc1cnc(Cc2ccc(Cl)cc2)nc1O[C@H]1CC[C@H](Cc2nc3cc(-c4nnc(C(F)(F)F)[nH]4)ccc3n2C[C@@H]2CCO2)CC1 [Compound 173a, 1-{[(2S)-oxetan-2-yl]methyl}-2-{[(1r,4r)-4-({2-[(4-chlorophenyl)methyl]-5-fluoropyrimidin-4-yl}oxy)cyclohexyl]methyl}-5-[5-(trifluoromethyl)-4H-1,2,4-triazol-3-yl]-1H-1,3-benzodiazole] | 9.09 | 
FC(F)(F)c1nnc(-c2cc3nc(CN4CCC(Oc5cccc(Cc6ccc(Cl)cc6)n5)CC4)n(C[C@@H]4CCO4)c3cn2)[nH]1 [Compound 140a, 2-[(4-chlorophenyl)methyl]-6-({1-[(3-{[(2S)-oxetan-2-yl]methyl}-6-[5-(trifluoromethyl)-4H-1,2,4-triazol-3-yl]-3H-imidazo[4,5-c]pyridin-2-yl)methyl]piperidin-4-yl}oxy)pyridine] |  | 8.77
Fc1cc(Cl)ccc1Cc1cccc(OC2CCN(Cc3nc4cc(-c5nnn[nH]5)ncc4n3C[C@@H]3CCO3)CC2)n1 [Compound 176a, 2-[(4-chloro-2-fluorophenyl)methyl]-6-({1-[(3-{[(2S)-oxetan-2-yl]methyl}-6-(1H-1,2,3,4-tetrazol-5-yl)-3H-imidazo[4,5-c]pyridin-2-yl)methyl]piperidin-4-yl}oxy)pyridine] | 9.70 | 
Cc1n[nH]c(-c2ccc3c(c2)nc(CN2CCC(Oc4ccnc(Cc5ccc(Cl)cc5)n4)CC2)n3C[C@@H]2CCO2)n1 [Compound 126a, 2-{[4-({2-[(4-chlorophenyl)methyl]pyrimidin-4-yl}oxy)piperidin-1-yl]methyl}-5-(3-methyl-1H-1,2,4-triazol-5-yl)-1-{[(2S)-oxetan-2-yl]methyl}-1H-1,3-benzodiazole] |  | 9.49
O=C(O)c1ccc2c(c1)nc(CN1CCC(Oc3ccnc(Cc4ccc(Cl)cc4F)n3)CC1)n2C[C@@H]1CCO1 [Compound 135a, 2-{[4-({2-[(4-chloro-2-fluorophenyl)methyl]pyrimidin-4-yl}oxy)piperidin-1-yl]methyl}-1-{[(2S)-oxetan-2-yl]methyl}-1H-1,3-benzodiazole-5-carboxylic acid] | 9.72 | 
N#CC1(Cn2c(CN3CCC(Oc4cccc(Cc5ccc(Cl)cc5F)n4)CC3)nc3cc(-c4nnc(C(F)(F)F)[nH]4)ncc32)CC1 [Compound 179, 1-[(2-{[4-({6-[(4-chloro-2-fluorophenyl)methyl]pyridin-2-yl}oxy)piperidin-1-yl]methyl}-6-[5-(trifluoromethyl)-4H-1,2,4-triazol-3-yl]-3H-imidazo[4,5-c]pyridin-3-yl)methyl]cyclopropane-1-carbonitrile] | 9.31 | 
Cn1cc(-c2ccc3c(c2)nc(CN2CCC(Oc4ccnc(Cc5ccc(Cl)cc5)n4)CC2)n3C[C@@H]2CCO2)nn1 [Compound 130a, 2-{[4-({2-[(4-chlorophenyl)methyl]pyrimidin-4-yl}oxy)piperidin-1-yl]methyl}-5-(1-methyl-1H-1,2,3-triazol-4-yl)-1-{[(2S)-oxetan-2-yl]methyl}-1H-1,3-benzodiazole] |  | 9.10
CCOCCn1c(CN2CCC(Oc3ccnc(Cc4ccc(Cl)cc4)n3)CC2)nc2cc(-c3nnc(C(F)(F)F)[nH]3)cnc21 [Compound 123, 2-[(4-chlorophenyl)methyl]-4-[(1-{[3-(2-ethoxyethyl)-6-[5-(trifluoromethyl)-4H-1,2,4-triazol-3-yl]-3H-imidazo[4,5-b]pyridin-2-yl]methyl}piperidin-4-yl)oxy]pyrimidine] |  | 8.24
Fc1cnc(Cc2ccc(Cl)cc2)nc1OC1CCN(Cc2nc3cc(-c4nnc(C(F)(F)F)[nH]4)ncc3n2C[C@@H]2CCO2)CC1 [Compound 149a, 2-[(4-chlorophenyl)methyl]-5-fluoro-4-({1-[(3-{[(2S)-oxetan-2-yl]methyl}-6-[5-(trifluoromethyl)-4H-1,2,4-triazol-3-yl]-3H-imidazo[4,5-c]pyridin-2-yl)methyl]piperidin-4-yl}oxy)pyrimidine] | 10.25 | 
Fc1cc(Cl)ccc1Cc1nccc(OC2CCN(Cc3nc4cc(-c5nnc[nH]5)ncc4n3C[C@@H]3CCO3)CC2)n1 [Compound 166a, 2-[(4-chloro-2-fluorophenyl)methyl]-4-({1-[(3-{[(2S)-oxetan-2-yl]methyl}-6-(4H-1,2,4-triazol-3-yl)-3H-imidazo[4,5-c]pyridin-2-yl)methyl]piperidin-4-yl}oxy)pyrimidine] |  | 8.74
Fc1cc(Cl)ccc1Cc1nccc(OC2CCN(Cc3nc4cc(-c5nnc(C(F)(F)F)[nH]5)nnc4n3C[C@@H]3CCO3)CC2)n1 [Compound 182a, 2-[(4-chloro-2-fluorophenyl)methyl]-4-({1-[(7-{[(2S)-oxetan-2-yl]methyl}-3-[5-(trifluoromethyl)-4H-1,2,4-triazol-3-yl]-7H-imidazo[4,5-c]pyridazin-6-yl)methyl]piperidin-4-yl}oxy)pyrimidine] | 9.70 | 
